Assay results from patent EP4635969A1, “NOVEL GLUCOCORTICOID, METHOD FOR PREPARING SAME, AND USE THEREOF” (Tianjin Pharmaceutical Biotechnology Co., Ltd., priority 2022, dated 2024).

Legend:
[1] = Determination of stability in plasma in vitro, human plasma (LC-MS/MS); type: in vitro ADME; conditions: same experimental conditions (human and mouse plasma)
In short: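 Compound at 1 µM final in human or mouse plasma (N = 2) at 37 °C; aliquots taken at 0 and preset time points into ice-cold precipitant with internal standard. Remaining compound measured semi-quantitatively by LC-MS/MS as analyte/internal-standard peak-area ratio.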

[2] = Stability in animal lung tissue homogenate, skin tissue homogenate and aqueous humor; type: in vitro ADME
[3] = tested on: asthma model mice; experiment: Anti-asthma pharmacodynamic experiment: airway hyperresponsiveness (Penh) after methacholine challenge; type: in vivo, female BALB/c mice; conditions: compared with the model group
Experimental: (§1) Pharmacological Example 4: Pharmacodynamic Experiment on Anti-Asthma
(§2) The suspensions were stored at room temperature protected from light until use.
(§3) Positive control drug: Budesonide Suspension for Inhalation (specification: 2 mL: 1 mg; AstraZeneca Inc.; Lot No. : 327392) was diluted with injection-grade sodium chloride solution to 0.3 mg/ml as the positive control drug, and stored at room temperature protected from light until use.
(§4) Sixty female BALB/c mice underwent a one-week adaptive feeding period. Ten mice were randomly selected as the blank control group, while 50 mice were selected to establish asthma models.
(§5) From days 21 to 23 after sensitization, the mice in the model group and drug administration group were exposed to a 30-minute aerosol challenge with 5% OVA, while the mice in the blank control group were exposed to normal saline aerosol for the same duration.
Airway responsiveness was measured in all groups of mice after the last challenge. The mice were placed into a plethysmography chamber, and baseline Penh values were recorded. Subsequently, the mice were challenged with aerosolized methacholine at concentrations from low to high of 0, 6.25, and 12.5 mg/mL, with an aerosol volume of 100 µ L each time for 60 s. […] Penh values were then recorded for 3 min and averaged to compare the airway responsiveness of each group of mice.
(§6) Statistical analysis was performed using SPSS software. Measurement data were expressed as mean ± standard deviation. One-way ANOVA was used for intergroup comparisons. For data with homogeneous variance, LSD test was used; for data with heterogeneous variance, Dunnett-t test was used. A value of P < 0.05 was considered statistically significant.

[4] = tested on: inflammatory cytokines IL-6 and IL-12; experiment: Anti-asthma pharmacodynamic experiment: inflammatory cytokines in bronchoalveolar lavage fluid (ELISA); type: in vivo, female BALB/c mice; conditions: compared with the model group
Experimental: as §1, §2, §3, §4, §5
At the end of airway hyperresponsiveness testing in mice, the mice were euthanized by cervical dislocation and fixed on a dissection tray. The abdomens and thoracic cavities of the mice were opened, and the skin and excess tissues of the neck were excised to expose the trachea of the mice. A small incision was made transversely on the trachea with a small scissors. A pre-treated 1 mL syringe needle was inserted and fastened with surgical thread. A 1 mL syringe was used to slowly inject 0.5 mL of pre-chilled phosphate-buffered saline (PBS) into the lungs of the mice, followed by slow aspiration. Each mouse was lavaged once, and a total of approximately 0.4 ml of lavage fluid was collected. The bronchoalveolar lavage fluid was centrifuged at 3000 rpm for 5 min. After centrifugation, the supernatant was aliquoted, and the levels of inflammatory cytokines IL-6 and IL-12 in the bronchoalveolar lavage fluid were determined using ELISA kits.
as §6

[5] = tested on: uveitis model rats; experiment: Anti-uveitis pharmacodynamic experiment (LPS model): ocular pathological score; type: in vivo, male SD rats; conditions: for ocular abnormalities / ocular pathological score: compared with the model group
[6] = tested on: dry eye syndrome model New Zealand rabbits; experiment: Dry eye syndrome experiment (benzalkonium chloride model): tear secretion test with phenol red cotton threads; type: in vivo, male New Zealand White rabbits; conditions: for tear secretion: compared with the model group
[7] = tested on: inflammatory bowel disease model rats; experiment: Inflammatory bowel disease experiment (TNBS model): macroscopic injury score of the colon; type: in vivo; conditions: compared with the model group
In short: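 Colitis in rats was induced by intrarectal TNBS 50 mg/kg (20 mg/mL in 50% ethanol) after 24 h fasting. Dosing began 1 h before induction, then daily for 5 days. On day 5 colon was scored macroscopically for adhesion, obstruction, wall thickening, congestion and necrosis, with ANOVA/Dunnett or Kruskal-Wallis/Mann-Whitney statistics.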

[8] = tested on: IL-17; experiment: Psoriasis experiment (imiquimod model): inflammatory cytokine in serum (ELISA); type: in vivo, mice; conditions: compared with the model group
Experimental: Positive control drug: Fluticasone Propionate Cream (specification: 0.05% × 15 g, Zhejiang Xianju Pharmaceutical Co. Ltd., Lot No. 211106), stored at room temperature protected from light until use.
Adult mice were selected, and the skin of 2 cm × 3 cm on the back of mice was locally depilated. The mice in the model group and drug administration group were applied with 62.5 mg of 5% imiquimod cream on their back for modeling, while the mice in the blank control group were applied with medical petroleum jelly on their back daily. The above procedures were performed once a day for 7 consecutive days.
The mice in the drug administration group were applied with the corresponding drugs on their backs daily at a dose of 0.2 g per mouse, while the blank control group and the model group were only applied with 0.2 g of the test sample drug matrix. One hour after drug administration, the drugs were wiped off with sterile cotton swabs, followed by the application of imiquimod. The above procedures were performed once a day for 7 consecutive days.
After the PASI scoring on day 8 of modeling, blood was collected from the orbital sinus of mice and centrifuged at 3000 rpm for 10 min. The supernatant was extracted to measure the level of IL-17. All procedures were performed following the instructions of the ELISA kit.
Statistical analysis was performed using SPSS software, and the results were expressed as mean ± standard deviation. One-way ANOVA was used for intergroup comparisons. For data with homogeneous variance, the LSD test was used; for data with heterogeneous variance, the Dunnett-t test was used. A value of P < 0.05 was considered statistically significant.

[9] = tested on: epidermal layer in rats; experiment: Adverse reactions of continuous dermal administration: thickness of the epidermal layer (H&E sections); type: in vivo, SD rats; conditions: compared with the blank control group
From the text: Pharmacological Example 10: Experiment on Adverse Reactions of Continuous Dermal Administration in Rats
Animals: SD rats, SPF grade, with an equal number of males and females, weighing 230-250 g.
Animal grouping: After adaptive feeding, the rats were randomly divided into 4 groups. […] One day before administration, the backs of rats were shaved at an area of 5 cm × 6 cm. […] The rats in the blank control group were applied with the blank matrix of corresponding mass on their backs, twice a day for a consecutive week. Table 21. Animal grouping and drug administration dosages for the experiment on adverse reactions of continuous dermal administration in rats
To examine the effects of continuous administration of the test samples on the epidermal layer, the back skin tissues were stained with hematoxylin and eosin (H&E) (magnification ×40), and the thickness of the epidermal layer was quantitatively measured based on the H&E-stained sections.

| Structure (SMILES) | plasma instability [1] | stability in animal lung tissue homogenate, skin tissue homogenate, and aqueous humor [2] | Effects on airway hyperresponsiveness (Penh values) in mice [3] | Effects on inflammatory cytokines in bronchoalveolar lavage fluid of mice [4] | ocular abnormalities / ocular pathological score [5] | tear secretion [6] | inflammatory response on the intestinal surface / intestinal symptoms [7] | level of IL-17 / inflammatory cytokines in psoriasis model mice [8] | thickness of the epidermal layer after continuous dermal administration [9] | Wetting length of phenol red cotton threads (mm) D0 ([6]; D0, 1 mg/mL, 50 µL/eye, 3 times a day for 14 days) | Wetting length of phenol red cotton threads (mm) D3 ([6]; D3, 1 mg/mL, 50 µL/eye, 3 times a day for 14 days) | Wetting length of phenol red cotton threads (mm) D7 ([6]; D7, 1 mg/mL, 50 µL/eye, 3 times a day for 14 days) | Wetting length of phenol red cotton threads (mm) D15 ([6]; D15, 1 mg/mL, 50 µL/eye, 3 times a day for 14 days) | Ocular pathological score ([5]; 1 mg/mL, 40 µL/eye, 3 times a day for 2 days) |
| --- | --- | --- | --- | --- | --- | --- | --- | --- | --- | --- | --- | --- | --- | --- |
| C[C@]12C=CC(=O)C=C1CC[C@H]1[C@@H]3C[C@H]4OC(c5ccc(CSC6CCOC6=O)cn5)O[C@@]4(C(=O)CO)[C@@]3(C)C[C@H](O)[C@@]12Cl (stereo partly drawn) [Compound 51, (6aS,6bR,7S,8aS,8bS,11aR,12aS,12bS)-6b-Chloro-7-hydroxy-8b-(2-hydroxyacetyl)-6a,8a-dimethyl-10-(5-(((2-oxotetrahydrofuran-3-yl)thio)methyl)pyridin-2-yl)-1,2,6a,6b,7,8,8a,8b,11a,12,12a,12 b-dodecahydro-4H-naphtho[2',1':4,5]indeno[1,2-d][1,3]dioxol-4-one] | exhibited the characteristic of plasma instability | relatively stable | significantly decreased the Penh values in mice | pharmacological effects similar to those of compound 23 | significantly improved ocular abnormalities | significantly increased the tear secretion | significantly alleviated the intestinal symptoms in inflammatory bowel disease model rats | significantly inhibited inflammatory cytokines in the skin of psoriasis model mice | no significant changes in the thickness of the epidermal layer observed | – | – | – | – | – |
| C[C@]12C=CC(=O)C=C1[C@@H](F)C[C@H]1[C@@H]3C[C@H]4OC(c5ccc(CSC6CCOC6=O)cc5)O[C@@]4(C(=O)OCF)[C@@]3(C)C[C@H](O)[C@@]12F (stereo partly drawn) [Compound 36, Fluoromethyl (2S,6aS,6bR,7S,8aS,8bS,11aR,12aS,12bS)-2,6b-difluoro-7-hydroxy-6a,8a-dimethyl-4-oxo-10-(4-( ((2-oxotetrahydrofuran-3-yl)thio)methyl)phenyl)-1,2,4,6a,6b,7,8,8a,11a,12,12a,12b-dodecahydro-8bH-naphtho[2',1':4,5]indeno[1,2-d][1,3]dioxole-8b-carboxylate] | exhibited the characteristic of plasma instability | relatively stable | significantly decreased the Penh values in mice | pharmacological effects similar to those of compound 23 | significantly improved ocular abnormalities | significantly increased the tear secretion | significantly alleviated the intestinal symptoms in inflammatory bowel disease model rats | significantly inhibited inflammatory cytokines in the skin of psoriasis model mice | no significant changes in the thickness of the epidermal layer observed | – | – | – | – | – |
| C[C@]12C=CC(=O)C=C1CC[C@H]1[C@@H]3C[C@H]4OC(c5ccc(CSC6COC(=O)C6)cc5Cl)O[C@@]4(C(=O)CO)[C@@]3(C)C[C@H](O)[C@@]12F (stereo partly drawn) [Compound 20, (6aS,6bR,7S,8aS,8bS,11aR,12aS,12bS)-10-(2-Chloro-4-(((5-oxotetrahydrofuran-3-yl)thio)methyl)phenyl)-6b-fluoro-7-hydroxy-8b-(2-hydroxyacetyl)-6a,8a-dimethyl-1,2,6a,6b,7,8,8a,8b,11a,12,12a, 12b-dodecahydro-4H-naphtho[2',1':4,5]indeno[1,2-d][1,3]dioxol-4-one] | exhibited the characteristic of plasma instability | relatively stable | significantly decreased the Penh values in mice | pharmacological effects similar to those of compound 23 | significantly improved ocular abnormalities | significantly increased the tear secretion on day 15 | significantly alleviated the intestinal symptoms in inflammatory bowel disease model rats | significantly inhibited inflammatory cytokines in the skin of psoriasis model mice | no significant changes in the thickness of the epidermal layer observed | 27.76 ± 6.04 mm | 23.39 ± 3.93 mm | 29.78 ± 2.74 mm | 35.28 ± 3.21 mm | – |
| C[C@]12C=CC(=O)C=C1[C@@H](F)C[C@H]1[C@@H]3C[C@H]4OC(c5ccc(CSC6CCOC6=O)cc5)O[C@@]4(C(=O)SCC#N)[C@@]3(C)C[C@H](O)[C@@]12F (stereo partly drawn) [Compound 35, S-(Cyanomethyl) (2S,6aS,6bR,7S,8aS,8bS,11aR,12aS,12bS)-2,6b-difluoro-7-hydroxy-6a,8a-dimethyl-4-oxo-10-(4-( ((2-oxotetrahydrofuran-3-yl)thio)methyl)phenyl)-1,2,4,6a,6b,7,8,8a,11a,12,12a,12b-dodecahydro-8bH-naphtho[2',1':4,5]indeno[1,2-d][1,3]dioxole-8b-carbothioate] | exhibited the characteristic of plasma instability | relatively stable | significantly decreased the Penh values in mice | pharmacological effects similar to those of compound 23 | significantly improved ocular abnormalities | significantly increased the tear secretion | significantly alleviated the intestinal symptoms in inflammatory bowel disease model rats | significantly inhibited inflammatory cytokines in the skin of psoriasis model mice | no significant changes in the thickness of the epidermal layer observed | – | – | – | – | – |
| C[C@]12C=CC(=O)C=C1CC[C@H]1[C@@H]3C[C@H]4OC(c5ccc(CSC6COC(=O)C6)cc5)O[C@@]4(C(=O)CO)[C@@]3(C)C[C@H](O)[C@@]12Cl (stereo partly drawn) [Compound 26, (6aS,6bR,7S,8aS,8bS,11aR,12aS,12bS)-6b-Chloro-7-hydroxy-8b-(2-hydroxyacetyl)-6a,8a-dimethyl-10-(4-(((5-oxotetrahydrofuran-3-yl)thio)methyl)phenyl)-1,2,6a,6b,7,8,8a,8b,11a,12,12a,12b-do decahydro-4H-naphtho[2',1':4,5]indeno[1,2-d][1,3]dioxol-4-one] | exhibited the characteristic of plasma instability | relatively stable | significantly decreased the Penh values in mice | pharmacological effects similar to those of compound 23 | significantly improved the ocular abnormalities and reduced the ocular pathological score | significantly increased the tear secretion | significantly alleviated the intestinal symptoms in inflammatory bowel disease model rats | significantly inhibited inflammatory cytokines in the skin of psoriasis model mice | no significant changes in the thickness of the epidermal layer observed | – | – | – | – | 7.6 ± 0.5 |
